Results from patent publication US20060013906A1, “Anti-helicobacter activity of celery seed extract” (priority 2002, published 2006).
Values after ≈ are worked out from the molar mass of the structure shown.

What follows are compounds tested on H. pylori (strain 3339) (assay: Broth dilution antimicrobial test, H. pylori strain 3339). Conditions: compounds from subfractions 6 and 10.
Type: cell-based, Helicobacter pylori
α and β-Eudesmol gave an MBC of 125 µg/mL and an MIC of 15.6 µg/mL.
For `CCCCC1OC(=O)c2ccccc21` (stereo not shown) [3-n Butyl phthalide, 3-n-butyl phthalide], the MIC was 15.6 µg/mL (≈ 82.1 µM).
With `CCCCC/C=C/C/C=C/CCCCCCCC(=O)O` [Linoleic acid, cis, cis - 9,12- Octadecadienoic acid] the MBC was > 125 µg/mL and the MIC was 62.5 µg/mL (≈ 223 µM).
`CCCCC1OC(=O)C2=C1CCC=C2` (stereo not shown) [sedanenolide, 3-n-butyl 4,5-dihydrolphthalide] gave an MBC of 62.5 µg/mL (≈ 325 µM) and an MIC of 31.2 µg/mL (≈ 163 µM).
